Measured values taken from patent US20190038650A1, “COMPOSITIONS AND METHODS FOR THE TREATMENT OF ATHEROSCLEROSIS AND HEPATOSTEATOSIS AND OTHER DISEASES” (priority 2016, published 2019).

Experiments:
[1] = test system: ApoE deficient mice; test: Atherosclerotic lesion size in ApoE deficient mice fed a Western diet; assay type: in vivo; conditions: trehalose oral and IP, 2 months post-treatment, relative to vehicle
Protocol: ApoE deficient mice were fed a Western diet with and without treatment with trehalose. Trehalose was administered oral and IP. At 2 months post-treatment the presence of atherosclerosis was evaluated.

[2] = test system: Mice fed a Western diet; test: Steatosis / body composition in mice fed a Western diet; assay type: in vivo
Protocol: Mice were fed a Western diet in combination with saline, sucrose or trehalose. The saline, sucrose or trehalose was administered orally and IP. Oral administration was provided in the cage water supply at 2% w/v in water (w/v=weight/volume). Additionally, 2 grams trehlose/kg mouse weight was injected IP. IP injection was 3 times/week. […] It was then determined if this significant reduction in body mass was due to fat mass or lean mass. […] (FIG. 2B). It was then determined the location of the increase in fat mass via tissue weights. […] Finally, the amount of liver triglycerides was measured in each group.

[3] = test system: Mice fed a Western diet; test: Insulin tolerance test; assay type: in vivo; conditions: compared to saline and sucrose, FIG. 3
Protocol: Additionally, an insulin tolerance test was performed in the presence of saline, sucrose or trehalose.

[4] = Trehalose tolerance test, serum trehalose in trehalase knockout mice; assay type: in vivo; conditions: trehalose IP 1 g/kg, trehalase knockout mice versus control mice
Protocol: To determine if inhibition of trehalase could enhance the efficacy of trehalose, a trehalase knockout mouse was generated. Control mice and trehalase knockout mice were then administered trehalose IP at 1 g/kg. Of 12 chimeric founders, a trehalose tolerance test was performed on n=3 non-targeted controls and n=5 chimeric mice. […] The serum concentration of trehalose at 30 minutes post-administration was measured.

[5] = oral; cited from earlier work
[6] = cited from earlier work
[7] = orally and intravenously, doses substantially higher than the intended therapeutic dose; cited from earlier work

In the case of `OC[C@H]1O[C@H](O[C@H]2O[C@H](CO)[C@@H](O)[C@H](O)[C@H]2O)[C@H](O)[C@@H](O)[C@@H]1O` [trehalose], the atherosclerotic lesion size [1] is reported as “significantly reduced atherosclerotic lesion size”, the lean mass ([2]; FIG. 2B) is reported as “not lean mass” and the liver triglycerides ([2]; FIG. 2D) is reported as “significant reduction in liver triglycerides”. For the same molecule, the body mass ([2]; Western diet, oral 2% w/v in water plus 2 g/kg IP 3 times/week, at 13-16 weeks) was “significantly decreased body mass”, the fat mass ([2]; at 16 weeks, relative to saline or sucrose) was “significant reduction in fat mass” and the “subcutaneous (subQ) fat mass” value ([2]; tissue weights, FIG. 2C) was “reduction of fat mass in the subcutaneous (subQ) fat”. For the same molecule, the “tissue mass in the liver” value ([2]; tissue weights, FIG. 2C) was “significant reduction in tissue mass in the liver”, the “insulin resistance (insulin tolerance test)” value [3] was “less insulin resistance was observed” and the “serum concentration of trehalose at 30 minutes post-administration” value [4] was “significantly higher serum levels of trehalose”. For the same molecule, the “ingested trehalose absorbed into the blood stream” value [5] was “Less than 0.5%”, the “trehalose not absorbed into the blood stream” value [5] was “Over 99.5%” and the “oral amount that may cause diarrhea and bloating” value [6] was 40-50 gram per day. The “oral amount that frequently causes diarrhea, bloating and discomfort” value ([6]; humans) was “higher than 50 g a day” and the safety and toxicity [7] was “found to be safe”.
